Experimental data taken from ChEMBL document CHEMBL4665811, “Sila-Ibuprofen” (J Med Chem, 2020).
In brackets after ≈: the same amount, converted by molar mass.

Experiments:
[1] = molecular target: T1, Prostaglandin G/H synthase 2 (Homo sapiens, UniProt P35354); assay: Inhibition of human recombinant COX2 expressed in Sf9 cells using arachidonic acid and ADHP incubated for 5 mins by fluorimetry
T1 sequence (P35354 whole entry): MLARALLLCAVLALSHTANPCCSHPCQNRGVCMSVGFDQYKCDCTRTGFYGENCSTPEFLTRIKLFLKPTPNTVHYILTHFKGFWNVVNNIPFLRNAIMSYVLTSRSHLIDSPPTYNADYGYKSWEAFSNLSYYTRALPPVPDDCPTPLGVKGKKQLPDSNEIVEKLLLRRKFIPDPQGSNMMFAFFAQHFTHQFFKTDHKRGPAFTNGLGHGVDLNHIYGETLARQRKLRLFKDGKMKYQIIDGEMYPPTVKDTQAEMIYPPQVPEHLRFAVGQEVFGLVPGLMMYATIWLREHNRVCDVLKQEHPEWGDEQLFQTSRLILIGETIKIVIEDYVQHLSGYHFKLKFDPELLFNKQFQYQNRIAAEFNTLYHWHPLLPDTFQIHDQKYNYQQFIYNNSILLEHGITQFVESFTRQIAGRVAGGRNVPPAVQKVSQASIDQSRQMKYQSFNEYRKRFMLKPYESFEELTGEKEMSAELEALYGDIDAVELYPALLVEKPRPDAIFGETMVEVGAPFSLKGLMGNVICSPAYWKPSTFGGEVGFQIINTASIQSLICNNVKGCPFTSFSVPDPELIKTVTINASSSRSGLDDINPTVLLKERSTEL

C6 [2] = assay: Toxicity in rat C6 cells assessed as reduction in cell proliferation at 1000 uM incubated up to 3 days by LDH release assay; format: cell-based; settings: c6, 72 h, time <=3 day
C6 [3] = assay: Toxicity in rat C6 cells assessed as reduction in protein content at 1000 uM incubated up to 3 days; format: cell-based; settings: c6, 72 h, time <= day
[4] = molecular target: Prostaglandin G/H synthase 1 (Homo sapiens, UniProt P23219); assay: Inhibition of human recombinant COX1 expressed in Sf9 cells using arachidonic acid and ADHP incubated for 3 mins by fluorimetry
Prostaglandin G/H synthase 1, sequence (P23219 whole entry): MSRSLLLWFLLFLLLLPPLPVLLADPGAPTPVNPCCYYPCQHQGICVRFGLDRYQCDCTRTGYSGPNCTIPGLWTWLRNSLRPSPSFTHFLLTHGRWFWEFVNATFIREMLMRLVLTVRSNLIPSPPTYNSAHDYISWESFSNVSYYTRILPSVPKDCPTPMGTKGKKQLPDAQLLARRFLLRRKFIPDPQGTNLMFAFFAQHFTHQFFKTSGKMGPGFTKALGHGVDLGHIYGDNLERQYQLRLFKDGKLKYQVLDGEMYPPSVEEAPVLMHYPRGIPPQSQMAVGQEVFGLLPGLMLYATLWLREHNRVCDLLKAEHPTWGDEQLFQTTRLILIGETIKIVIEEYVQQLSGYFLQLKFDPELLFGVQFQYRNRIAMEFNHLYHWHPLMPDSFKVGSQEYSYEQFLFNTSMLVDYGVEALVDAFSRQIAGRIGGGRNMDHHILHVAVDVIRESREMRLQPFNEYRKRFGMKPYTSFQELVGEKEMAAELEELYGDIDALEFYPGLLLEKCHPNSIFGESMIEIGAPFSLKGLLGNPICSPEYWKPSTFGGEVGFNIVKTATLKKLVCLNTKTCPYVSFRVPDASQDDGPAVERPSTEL

C6 [5] = assay: Toxicity in rat C6 cells assessed as effect on extracellular lactate dehydrogenase activity at 1000 uM incubated for 3 days by LDH release assay; format: cell-based; settings: c6, 72 h, time 3 day
C6 [6] = assay: Toxicity in rat C6 cells assessed as effect on cellular protein per well up to 300 uM incubated for 72 hrs; format: cell-based; settings: c6, 72 h
[7] = Solubility in water by HPLC/UV analysis; format: physicochemical
C6 [8] = assay: Toxicity in rat C6 cells assessed as effect on cell morphology at 1000 uM incubated for 3 days; format: cell-based; settings: c6, 72 h, time 3 day
C6 [9] = assay: Toxicity in rat C6 cells assessed as effect on cellular viability up to 300 uM incubated for 72 hrs by WST1 assay; format: cell-based; settings: c6, 72 h
C6 [10] = assay: Toxicity in rat C6 cells assessed as effect on cellular viability at 1000 uM incubated up to 3 days by WST1 assay; format: cell-based; settings: c6, 72 h, time <=3 day
C6 [11] = assay: Toxicity in rat C6 cells assessed as effect on cell proliferation at 300 uM incubated up to 3 days by LDH release assay; format: cell-based; settings: c6, 72 h, time <=3 day
C6 [12] = assay: Toxicity in rat C6 cells assessed as effect on cellular lactate production to 300 uM incubated for 72 hrs; format: cell-based; settings: c6, 72 h
C6 [13] = assay: Toxicity in rat C6 cells assessed as effect on cell viability up to 300 uM incubated for 72 hrs by LDH release assay; format: cell-based; settings: c6, 72 h

| SMILES | IC50 [1] | Activity (C6 [2]) | Activity (C6 [3]) | IC50 [4] | Activity (C6 [5]) | Activity (C6 [6]) | solubility [7] | Activity (C6 [8]) | Activity (C6 [9]) | Activity (C6 [10]) | Activity (C6 [11]) | Activity (C6 [12]) | Activity (C6 [13]) |
| --- | --- | --- | --- | --- | --- | --- | --- | --- | --- | --- | --- | --- | --- |
| CC(C(=O)O)c1ccc(C[SiH](C)C)cc1 (stereo unspecified) | 8.3 µM | Toxic | Toxic | 26 µM | Non-Toxic | Non-Toxic | 83 µg/mL (≈ 373 µM) | Non-Toxic | Non-Toxic | Toxic | Non-Toxic | Non-Toxic | Non-Toxic |
| CC(C)Cc1ccc(C(C)C(=O)O)cc1 (stereo unspecified) [IBUPROFEN] |  | Toxic |  |  | Non-Toxic | Non-Toxic |  | Non-Toxic | Non-Toxic |  | Non-Toxic | Non-Toxic | Non-Toxic |
